According to ChEMBL document CHEMBL5303573, “Mapping human microbiome drug metabolism by gut bacteria and their genes” (Nature, 2019):

Experiments:
[1] = The drug is tested on Clostridium spiroforme strain: DSM1552 for biotransformation. The drug concentrations were measured before and after a 12-h incubation by liquid-chromatography-coupled mass spectrometry (LC–MS); conditions: thomasclavelia spiroformis, 2 µM
[2] = molecular target: T1, SGNH hydrolase-type esterase domain-containing protein (Phocaeicola dorei, UniProt B6W1J1); test: (§1) The drug is tested on Bacteroides dorei strain: DSM17855 for biotransformation. The drug concentrations were measured before and after a 12-h incubation by liquid-chromatography-coupled mass spectrometry (LC–MS); format: ADME; parameters: dose 2 uM; conditions: 2 µM
T1 sequence (B6W1J1 whole entry): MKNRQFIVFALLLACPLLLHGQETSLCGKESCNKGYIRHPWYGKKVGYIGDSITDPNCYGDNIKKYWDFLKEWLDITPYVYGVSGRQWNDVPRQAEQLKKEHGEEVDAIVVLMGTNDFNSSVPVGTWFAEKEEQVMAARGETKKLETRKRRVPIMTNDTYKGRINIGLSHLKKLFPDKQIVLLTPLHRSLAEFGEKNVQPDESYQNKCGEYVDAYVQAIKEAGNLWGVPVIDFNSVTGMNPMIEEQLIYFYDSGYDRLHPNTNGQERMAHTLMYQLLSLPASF

[3] = molecular target: T2, Steroid 5-alpha reductase C-terminal domain-containing protein (Phocaeicola dorei, UniProt B6W0N3); test: as §1; format: ADME; parameters: dose 2 uM; conditions: 2 µM
T2 sequence (B6W0N3 whole entry): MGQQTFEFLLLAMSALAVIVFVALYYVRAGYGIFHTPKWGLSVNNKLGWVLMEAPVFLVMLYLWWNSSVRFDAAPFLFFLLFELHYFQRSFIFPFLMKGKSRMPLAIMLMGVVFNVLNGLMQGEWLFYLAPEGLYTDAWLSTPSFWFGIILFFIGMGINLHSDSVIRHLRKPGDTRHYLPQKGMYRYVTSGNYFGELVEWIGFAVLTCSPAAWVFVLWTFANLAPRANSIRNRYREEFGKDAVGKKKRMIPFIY

[4] = molecular target: T3, Sialic acid-specific 9-O-acetylesterase (Bacteroides thetaiotaomicron, UniProt Q8A0D0); test: (§2) The drug is tested on Bacteroides thetaiotaomicron strain: VPI-5482 for biotransformation. The drug concentrations were measured before and after a 12-h incubation by liquid-chromatography-coupled mass spectrometry (LC–MS); format: ADME; parameters: dose 2 uM; conditions: 2 µM
T3 sequence (Q8A0D0 whole entry): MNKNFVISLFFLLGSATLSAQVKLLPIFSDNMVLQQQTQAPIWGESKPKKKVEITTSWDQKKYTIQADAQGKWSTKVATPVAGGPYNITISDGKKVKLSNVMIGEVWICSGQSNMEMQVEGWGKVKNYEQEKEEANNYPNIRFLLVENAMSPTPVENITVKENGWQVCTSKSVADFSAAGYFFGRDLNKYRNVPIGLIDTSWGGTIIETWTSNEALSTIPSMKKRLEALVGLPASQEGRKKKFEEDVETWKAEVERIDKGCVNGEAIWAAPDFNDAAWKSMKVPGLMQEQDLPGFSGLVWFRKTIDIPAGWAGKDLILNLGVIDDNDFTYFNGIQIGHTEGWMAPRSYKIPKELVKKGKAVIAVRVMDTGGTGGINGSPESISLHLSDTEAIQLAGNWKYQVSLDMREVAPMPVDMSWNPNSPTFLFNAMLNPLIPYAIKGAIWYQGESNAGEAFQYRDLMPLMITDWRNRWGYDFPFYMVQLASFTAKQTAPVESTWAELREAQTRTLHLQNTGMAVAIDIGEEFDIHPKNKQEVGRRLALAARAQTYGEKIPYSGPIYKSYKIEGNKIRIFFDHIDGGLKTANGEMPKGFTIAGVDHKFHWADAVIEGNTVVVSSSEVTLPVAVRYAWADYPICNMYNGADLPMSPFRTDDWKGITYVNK

[5] = molecular target: T4, Acyltransferase (Bacteroides thetaiotaomicron, UniProt Q8A575); test: as §2; format: ADME; parameters: dose 2 uM; conditions: 2 µM
T4 sequence (Q8A575 whole entry): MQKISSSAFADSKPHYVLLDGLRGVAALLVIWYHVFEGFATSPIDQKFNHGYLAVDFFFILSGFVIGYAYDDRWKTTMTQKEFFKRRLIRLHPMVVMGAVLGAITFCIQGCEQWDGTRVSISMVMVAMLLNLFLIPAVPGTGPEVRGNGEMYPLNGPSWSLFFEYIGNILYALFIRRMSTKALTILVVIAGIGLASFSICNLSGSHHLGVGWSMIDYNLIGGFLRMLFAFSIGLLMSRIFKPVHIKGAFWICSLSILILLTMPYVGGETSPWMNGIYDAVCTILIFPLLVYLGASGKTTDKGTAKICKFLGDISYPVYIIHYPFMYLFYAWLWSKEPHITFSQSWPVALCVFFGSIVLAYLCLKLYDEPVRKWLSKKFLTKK

[6] = molecular target: T5, Acylhydrolase (Bacteroides thetaiotaomicron, UniProt Q8AA96); test: as §2; format: ADME; parameters: dose 2 uM; conditions: 2 µM
T5 sequence (Q8AA96 whole entry): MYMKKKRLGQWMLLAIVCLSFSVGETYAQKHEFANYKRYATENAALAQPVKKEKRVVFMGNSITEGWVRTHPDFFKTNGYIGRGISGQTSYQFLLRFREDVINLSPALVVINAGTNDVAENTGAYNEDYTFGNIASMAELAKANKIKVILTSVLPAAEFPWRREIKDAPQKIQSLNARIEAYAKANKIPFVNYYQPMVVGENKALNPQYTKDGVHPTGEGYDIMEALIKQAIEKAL

[7] = molecular target: T6, Regulatory protein (Bacteroides thetaiotaomicron, UniProt Q8A576); test: as §2; format: ADME; parameters: dose 2 uM; conditions: 2 µM
T6 sequence (Q8A576 whole entry): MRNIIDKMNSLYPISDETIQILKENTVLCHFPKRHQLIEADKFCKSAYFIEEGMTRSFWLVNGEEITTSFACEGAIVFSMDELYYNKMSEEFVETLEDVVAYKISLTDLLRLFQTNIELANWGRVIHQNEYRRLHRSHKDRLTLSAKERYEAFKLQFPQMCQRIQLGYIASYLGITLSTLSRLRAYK

[8] = molecular target: T7, Acetyl esterase (Acetylxylosidase) (Bacteroides thetaiotaomicron, UniProt Q8ABF8); test: as §2; format: ADME; parameters: dose 2 uM; conditions: 2 µM
T7 sequence (Q8ABF8 whole entry): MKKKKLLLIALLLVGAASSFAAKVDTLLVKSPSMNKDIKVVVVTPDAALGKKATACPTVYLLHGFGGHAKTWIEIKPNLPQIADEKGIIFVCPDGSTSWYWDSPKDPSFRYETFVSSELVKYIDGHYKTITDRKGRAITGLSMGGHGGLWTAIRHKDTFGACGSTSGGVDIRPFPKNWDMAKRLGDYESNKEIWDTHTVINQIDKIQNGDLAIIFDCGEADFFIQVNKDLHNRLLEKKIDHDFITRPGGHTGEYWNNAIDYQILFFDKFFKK

SMILES | Bacterial Biotransformation [1] | Bacterial Biotransformation [2] | Bacterial Biotransformation [3] | Bacterial Biotransformation [4] | Bacterial Biotransformation [5] | Bacterial Biotransformation [6] | Bacterial Biotransformation [7] | Bacterial Biotransformation [8]
C[C@@H]1CC[C@H]2[C@@H](C)C(=O)O[C@@H]3O[C@@]4(C)CC[C@@H]1[C@]32OO4 [ARTEMISININ] | Compound metabolized | Compound NOT metabolized | Compound NOT metabolized | Compound NOT metabolized | Compound NOT metabolized | Compound NOT metabolized | Compound NOT metabolized | Compound NOT metabolized
CCS(=O)(=O)CCn1c([N+](=O)[O-])cnc1C [TINIDAZOLE] |  | Compound NOT metabolized | Compound NOT metabolized | Compound NOT metabolized | Compound NOT metabolized | Compound NOT metabolized | Compound NOT metabolized | Compound NOT metabolized
